Measurements as given in US10294234B2, “HIV inhibitor compounds” (priority 2017, dated 2019).
pEC50: −log10 of the molar value. Where two headings read alike, the source gives them in different places.

Assays:
[1] = tested on: HIV-1 (IIIB) in MT-4 cells; assay: MT-4 HIV assay; format: cell-based; details: Human immunodeficiency virus 1, MT4, 120 h; HIV-1 (IIIB), MT-4 cells, 5 days, Cell Titer Glo; read-out: EC50
Summary of the method: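 Antiviral activity was read by Cell Titer Glo after a 5-day, 37 °C culture of MT-4 cells pre-infected with a 1:250 dilution of HIV-1 (IIIB). Compounds were tested as threefold dilution series in complete RPMI. Controls were no drug, mock infection and 5 uM AZT.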

[2] = Summary of the method: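 Depletion measured by LC/MS/MS at 2, 12, 25, 45 and 65 minutes after 1 uM compound was added to liver microsomes (0.5 mg/mL; dog, rat, human) with NADPH-regenerating cofactor, in duplicate. In vitro t1/2 converted to Clint.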
[3] = human liver microsomes 0.5 mg/mL, 1 uM compound, NADPH
[4] = rat liver microsomes 0.5 mg/mL, 1 uM compound, NADPH

SMILES | pEC50 [1] | Human Pred Cl. [2, 3] [L/H/kg] | Rat. Pred. Cl. [2, 4] [L/H/kg] | Human Pred Cl. ([2]; human, microsomes) [L/H/kg] | Rat. Pred. Cl. ([2]; rat, microsomes) [L/H/kg]
COC(=O)N[C@H](C(=O)N[C@@H](Cc1ccc(C#Cc2ccc(N3C[C@H]4C[C@@H]3CN4C3COC3)nc2)cc1)[C@@H](O)CN(Cc1c(F)cc(-c2cc(F)ccn2)cc1F)NC(=O)[C@@H](NC(=O)OC)C(C)(C)C(F)(F)F)C(C)(C)C(F)(F)F [Example 138, Methyl ((5S,8S,9S,14S)-11-(2,6-difluoro-4-(4-fluoropyridin-2-yl)benzyl)-16,16,16-trifluoro-9-hydroxy-15,15-dimethyl-8-(4-((6-((1R,4R)-5-(oxetan-3-yl)-2,5-diazabicyclo[2.2.1]heptan-2-yl)pyridin-3-yl)ethynyl)benzyl)-3,6,13-trioxo-5-(1,1,1-trifluoro-2-methylpropan-2-yl)-2-oxa-4,7,11,12-tetraazahexadecan-14-yl)carbamate] | 8.63 | 0.17 | 0.95 | – | –
COC(=O)N[C@H](C(=O)N[C@@H](Cc1ccc(C#Cc2cnc(N3CC4CCC(C3)N4C3COC3)nc2)cc1)[C@@H](O)CN(Cc1ccc(-c2ccn(C(F)F)n2)cc1)NC(=O)[C@@H](NC(=O)OC)C(C)(C)C(F)(F)F)C(C)(C)C(F)(F)F [Example 122, Methyl ((5S,8S,9S,14S)-11-(4-(1-(difluoromethyl)-1H-pyrazol-3-yl)benzyl)-16,16,16-trifluoro-9-hydroxy-15,15-dimethyl-8-(4-((2-(8-(oxetan-3-yl)-3,8-diazabicyclo[3.2.1]octan-3-yl)pyrimidin-5-yl)ethynyl)benzyl)-3,6,13-trioxo-5-(1,1,1-trifluoro-2-methylpropan-2-yl)-2-oxa-4,7,11,12-tetraazahexadecan-14-yl)carbamate] | 8.34 | – | – | <0.11 | –
CC(C)([C@H](NC(=O)OC1CC1)C(=O)N[C@@H](Cc1ccc(-c2cnn(C(F)F)c2)cc1)[C@@H](O)CN(Cc1c(F)cc(-c2cnn(C(F)F)c2)cc1F)NC(=O)[C@@H](NC(=O)OC1CC1)C(C)(C)C(F)(F)F)C(F)(F)F [Example 210, Cyclopropyl ((S)-1-(2-((2S,3S)-3-((S)-2-((cyclopropoxycarbonyl)amino)-4,4,4-trifluoro-3,3-dimethylbutanamido)-4-(4-(1-(difluoromethyl)-1H-pyrazol-4-yl)phenyl)-2-hydroxybutyl)-2-(4-(1-(difluoromethyl)-1H-pyrazol-4-yl)-2,6-difluorobenzyl)hydrazinyl)-4,4,4-trifluoro-3,3-dimethyl-1-oxobutan-2-yl)carbamate] | 7.82 | 0.18 | <0.18 | – | –
COC(=O)N[C@H](C(=O)N[C@@H](Cc1ccc(-c2cnc(N3CC4CCC(C3)N4C3COC3)nc2)cc1)[C@@H](O)CN(Cc1c(F)cc(-c2ccn(CC(F)F)n2)cc1F)NC(=O)[C@@H](NC(=O)OC)C(C)(C)C(F)(F)F)C(C)(C)C(F)(F)F [Example 197, Methyl ((5S,8S,9S,14S)-11-(4-(1-(2,2-difluoroethyl)-1H-pyrazol-3-yl)-2,6-difluorobenzyl)-16,16,16-trifluoro-9-hydroxy-15,15-dimethyl-8-(4-(2-(8-(oxetan-3-yl)-3,8-diazabicyclo[3.2.1]octan-3-yl)pyrimidin-5-yl)benzyl)-3,6,13-trioxo-5-(1,1,1-trifluoro-2-methylpropan-2-yl)-2-oxa-4,7,11,12-tetraazahexadecan-14-yl)carbamate] | 8.58 | – | – | <0.11 | 0.32
COC(=O)N[C@H](C(=O)N[C@@H](Cc1ccc(C#Cc2ccc(N3CC4COCC(C3)N4C)nc2)cc1)[C@@H](O)CN(Cc1c(F)cc(-c2ccn(C(F)F)n2)cc1F)NC(=O)[C@@H](NC(=O)OC)C(C)(C)C(F)(F)F)C(C)(C)C(F)(F)F [Example 44, Methyl ((5S,8S,9S,14S)-11-(4-(1-(difluoromethyl)-1H-pyrazol-3-yl)-2,6-difluorobenzyl)-16,16,16-trifluoro-9-hydroxy-15,15-dimethyl-8-(4-((6-(9-methyl-3-oxa-7,9-diazabicyclo[3.3.1]nonan-7-yl)pyridin-3-yl)ethynyl)benzyl)-3,6,13-trioxo-5-(1,1,1-trifluoro-2-methylpropan-2-yl)-2-oxa-4,7,11,12-tetraazahexadecan-14-yl)carbamate] | 8.40 | – | – | 0.13 | 2.54
COC(=O)N[C@H](C(=O)N[C@@H](Cc1ccc(C#Cc2ccc(N3CC4CCC(C3)N4C3COC3)nc2)cc1)[C@@H](O)CN(Cc1c(F)cc(-c2ccc(C(F)F)cn2)cc1F)NC(=O)[C@@H](NC(=O)OC)C(C)(C)C(F)(F)F)C(C)(C)C(F)(F)F [Example 99, Methyl ((5S,8S,9S,14S)-11-(4-(5-(difluoromethyl)pyridin-2-yl)-2,6-difluorobenzyl)-16,16,16-trifluoro-9-hydroxy-15,15-dimethyl-8-(4-((6-(8-(oxetan-3-yl)-3,8-diazabicyclo [3.2.1]octan-3-yl)pyridin-3-yl)ethynyl)benzyl)-3,6,13-trioxo-5-(1,1,1-trifluoro-2-methylpropan-2-yl)-2-oxa-4,7,11,12-tetraazahexadecan-14-yl)carbamate] | 8.10 | – | – | <0.11 | 0.26
COC(=O)N[C@H](C(=O)N[C@@H](Cc1ccc(C#Cc2ccc(N3C[C@H]4C[C@@H]3CN4C3COC3)nc2)cc1)[C@@H](O)CN(Cc1c(F)cc(-c2ncccn2)cc1F)NC(=O)[C@@H](NC(=O)OC)C(C)(C)C(F)(F)F)C(C)(C)C(F)(F)F [Example 93, Methyl ((5S,8S,9S,14S)-11-(2,6-difluoro-4-(pyrimidin-2-yl)benzyl)-16,16,16-trifluoro-9-hydroxy-15,15-dimethyl-8-(4-((6-((1R,4R)-5-(oxetan-3-yl)-2,5-diazabicyclo[2.2.1]heptan-2-yl)pyridin-3-yl)ethynyl)benzyl)-3,6,13-trioxo-5-(1,1,1-trifluoro-2-methylpropan-2-yl)-2-oxa-4,7,11,12-tetraazahexadecan-14-yl)carbamate] | 8.60 | 0.19 | 1.13 | – | –
COC(=O)N[C@H](C(=O)N[C@@H](Cc1ccc(C#Cc2ccc(N3C4CC3CN(C3COC3)C4)nc2)cc1)[C@@H](O)CN(Cc1c(F)cc(-c2cnn(C(F)F)c2)cc1F)NC(=O)[C@@H](NC(=O)OC)C(C)(C)C(F)(F)F)C(C)(C)C(F)(F)F [Example 59, Methyl ((5S,8S,9S,14S)-11-(4-(1-(difluoromethyl)-1H-pyrazol-4-yl)-2,6-difluorobenzyl)-16,16,16-trifluoro-9-hydroxy-15,15-dimethyl-8-(4-((6-(3-(oxetan-3-yl)-3,6-diazabicyclo[3.1.1]heptan-6-yl)pyridin-3-yl)ethynyl)benzyl)-3,6,13-trioxo-5-(1,1,1-trifluoro-2-methylpropan-2-yl)-2-oxa-4,7,11,12-tetraazahexadecan-14-yl)carbamate] | 8.47 | – | – | 0.6 | 0.83
COC(=O)N[C@H](C(=O)N[C@@H](Cc1ccc(C#Cc2cnc(N3CCN(C4COC4)CC3)nc2)cc1)[C@@H](O)CN(Cc1c(F)cc(-c2cnn(C(F)F)c2)cc1F)NC(=O)[C@@H](NC(=O)OC)C(C)(C)C(F)(F)F)C(C)(C)C(F)(F)F [Example 103, Methyl ((5S,8S,9S,14S)-11-(4-(1-(difluoromethyl)-1H-pyrazol-4-yl)-2,6-difluorobenzyl)-16,16,16-trifluoro-9-hydroxy-15,15-dimethyl-8-(4-((2-(4-(oxetan-3-yl)piperazin-1-yl)pyrimidin-5-yl)ethynyl)benzyl)-3,6,13-trioxo-5-(1,1,1-trifluoro-2-methylpropan-2-yl)-2-oxa-4,7,11,12-tetraazahexadecan-14-yl)carbamate] | 8.32 | 0.16 | 0.32 | – | –
COC(=O)N[C@H](C(=O)N[C@@H](Cc1ccc(C#Cc2ccc(N3CC[N+]4([O-])CCOC[C@H]4C3)nc2)cc1)[C@@H](O)CN(Cc1c(F)cc(-c2ccn(C(F)F)n2)cc1F)NC(=O)[C@@H](NC(=O)OC)C(C)(C)C(F)(F)F)C(C)(C)C(F)(F)F (stereo partly drawn) [Example 52, (9aR)-8-(5-((4-((2S,3S)-4-(1-(4-(1-(difluoromethyl)-1H-pyrazol-3-yl)-2,6-difluorobenzyl)-2-((S)-4,4,4-trifluoro-2-((methoxycarbonyl)amino)-3,3-dimethylbutanoyl)hydrazinyl)-3-hydroxy-2-((S)-4,4,4-trifluoro-2-((methoxycarbonyl)amino)-3,3-dimethylbutanamido)butyl)phenyl)ethynyl)pyridin-2-yl)octahydro-5H-pyrazino[2,1-c][1,4]oxazine 5-oxide] | 8.09 | 0.14 | <0.18 | – | –
COC(=O)N[C@H](C(=O)N[C@@H](Cc1ccc(C#Cc2ccc(N3C4CCC3CN(C3COC3)C4)nc2)cc1)[C@@H](O)CN(Cc1c(F)cc(-c2cnn(C(F)F)c2)cc1F)NC(=O)[C@@H](NC(=O)OC)C(C)(C)C(F)(F)F)C(C)(C)C(F)(F)F [Example 19, methyl ((5S,8S,9S,14S)-11-(4-(1-(difluoromethyl)-1H-pyrazol-4-yl)-2,6-difluorobenzyl)-16,16,16-trifluoro-9-hydroxy-15,15-dimethyl-8-(4-((6-(3-(oxetan-3-yl)-3,8-diazabicyclo[3.2.1]octan-8-yl)pyridin-3-yl)ethynyl)benzyl)-3,6,13-trioxo-5-(1,1,1-trifluoro-2-methylpropan-2-yl)-2-oxa-4,7,11,12-tetraazahexadecan-14-yl)carbamate] | 8.07 | – | – | <0.11 | 0.29
